According to US20230279020A9, “CARM1 INHIBITORS AND USES THEREOF” (Epizyme, Inc., priority 2013, published 2023):

Biological target: Human CARM1 (PRMT4) (Homo sapiens (Human), UniProt Q86X55)
Experiment: CARM1 enzyme assay on peptide substrate (3H-SAM Flashplate)
Conditions: Biochemical potencies, classification codes; read-out: Biochem IC50

Sequence of Human CARM1 (PRMT4) (Q86X55 other isoform, or with tags, fused parts or gaps isoform Q86X55-1): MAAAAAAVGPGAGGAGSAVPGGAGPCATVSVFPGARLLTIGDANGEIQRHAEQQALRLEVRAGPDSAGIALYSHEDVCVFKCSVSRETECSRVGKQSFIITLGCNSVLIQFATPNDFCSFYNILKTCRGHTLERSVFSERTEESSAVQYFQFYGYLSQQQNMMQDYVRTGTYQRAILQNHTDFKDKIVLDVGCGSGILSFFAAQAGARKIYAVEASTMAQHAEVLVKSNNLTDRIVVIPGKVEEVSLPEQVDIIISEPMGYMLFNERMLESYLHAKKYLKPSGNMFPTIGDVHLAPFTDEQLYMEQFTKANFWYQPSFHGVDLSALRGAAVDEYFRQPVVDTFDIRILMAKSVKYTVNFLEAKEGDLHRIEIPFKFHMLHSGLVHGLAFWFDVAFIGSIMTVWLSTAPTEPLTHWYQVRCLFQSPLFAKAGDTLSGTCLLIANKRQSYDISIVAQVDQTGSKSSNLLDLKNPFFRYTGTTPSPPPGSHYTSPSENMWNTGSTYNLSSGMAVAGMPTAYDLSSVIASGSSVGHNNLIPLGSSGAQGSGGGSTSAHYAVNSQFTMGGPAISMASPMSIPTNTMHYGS

IC50	Structure (SMILES)
< 100 nM	CNC[C@@H](O)COc1ccc(C(F)(F)F)c(-c2nc(-c3c(C)noc3C)c(C)c(N3Cc4cncnc4C3)n2)c1 [Example 247-3]
< 100 nM	CNC[C@@H](O)COc1ccc(Cl)c(-c2nc(-c3c(C)noc3C)c(C)c(N3Cc4cc(Br)cnc4C3)n2)c1 [Example 248-3]
< 100 nM	CNC[C@@H](O)COc1ccc(Cl)c(-c2nc(-c3c(C)noc3C)cc(N3CC4(CCOCC4)C3)n2)c1 [Example 249-3]
< 100 nM	CNC[C@@H](O)COc1ccc(Cl)c(-c2nc(-c3c(C)noc3C)cc(N3Cc4cnn(C)c4C3)n2)c1 [Example 250-3]
< 100 nM	CNC[C@@H](O)COc1ccc(Cl)c(-c2nc(-c3c(C)noc3C)cc(N3Cc4nccnc4C3)n2)c1 [Example 251-3]
< 100 nM	CNC[C@@H](O)COc1ccc(Cl)c(-c2nc(-c3c(C)noc3C)c(C)c(N3Cc4nn(C)c(C)c4C3)n2)c1 [Example 252-3]
< 100 nM	CCO[C@@H]1CCC[C@@H]1Nc1nc(-c2cc(OC[C@H](O)CNC)ccc2Cl)nc(-c2c(C)noc2C)c1C [Example 253-3]
< 100 nM	CCO[C@@H]1CCC[C@@H]1N(CC)c1nc(-c2cc(OC[C@H](O)CNC)ccc2Cl)nc(-c2c(C)noc2C)c1C [Example 254-3]
< 100 nM	CCO[C@H]1CCC[C@H]1N(CC)c1nc(-c2cc(OC[C@H](O)CNC)ccc2Cl)nc(-c2c(C)noc2C)c1C [Example 255-3]
< 100 nM	CNCC(O)COc1cccc(-c2nc(NC3CCOCC3)c(C)c(-c3c(CO)noc3C)n2)c1 (stereo not drawn) [Example 256-3]
< 100 nM	CNC[C@@H](O)COc1ccc(Cl)c(-c2nc(N[C@@H]3CCO[C@@H](C)C3)c(C)c(-c3c(C)noc3C)n2)c1 [Example 257-3]
< 100 nM	CNC[C@@H](O)COc1ccc(Cl)c(-c2nc(NC3CCN(C)CC3(F)F)c(C)c(-c3c(C)noc3C)n2)c1 (stereo partly drawn) [Example 258-3]
< 100 nM	CNC[C@@H](O)COc1ccc(Cl)c(-c2nc(-c3c(C)noc3C)c(C)c(N3Cc4cnc(C5CC5)nc4C3)n2)c1 [Example 259-3]
< 100 nM	CNC[C@@H](O)COc1ccc(F)c(-c2nc(-c3c(C)noc3C)c(C)c(N3Cc4cncnc4C3)n2)c1 [Example 260-3]
< 100 nM	CNC[C@@H](O)COc1ccc(Cl)c(-c2nc(-c3c(C)noc3C)c(F)c(N3CC4(CCOCC4)C3)n2)c1 [Example 261-3]
< 100 nM	CNC[C@@H](O)COc1ccc(Cl)c(-c2nc(-c3c(C)noc3C)c(C)c(N3Cc4cnc(C(F)(F)F)nc4C3)n2)c1 [Example 263-3]

IC50	Structure (SMILES)
< 100 nM	CNC[C@@H](O)COc1ccc(Cl)c(-c2nc(-c3c(C)noc3C)c(C)c(N3Cc4cnc(C(C)C)nc4C3)n2)c1 [Example 264-3]
< 100 nM	CNC[C@@H](O)COc1ccc(Cl)c(-c2nc(-c3c(C)noc3C)c(C)c(N3Cc4cnn(CC(F)(F)F)c4C3)n2)c1 [Example 265-3]
< 100 nM	CNC[C@@H](O)COc1ccc(F)c(-c2nc(-c3c(C)noc3C)c(C)c(N3Cc4cccc(F)c4C3)n2)c1 [Example 266-3]
< 100 nM	CNC[C@@H](O)COc1ccc(Cl)c(-c2nc(-c3c(C)noc3C)c(C)c(N3Cc4cccc(F)c4C3)n2)c1 [Example 267-3]
< 100 nM	CNC[C@@H](O)COc1ccc(Cl)c(-c2nc(-c3c(C)noc3C)c(C)c(C3CCOCC3)n2)c1 [Example 268-3]
< 100 nM	CNC[C@@H](O)COc1ccc(F)c(-c2nc(-c3c(C)noc3C)c(C)c(N3CC4(CCCCO4)C3)n2)c1 [Example 269-3]
< 100 nM	CNC[C@@H](O)COc1ccc(Cl)c(-c2nc(-c3c(C)noc3C)c(C)c(N3Cc4cnn(C5CC5)c4C3)n2)c1 [Example 270-3]
< 100 nM	CNC[C@@H](O)COc1ccc(Cl)c(-c2nc(-c3c(C)noc3C)c(C)c(N3Cc4cn(C(C)C)nc4C3)n2)c1 [Example 272-3]
< 100 nM	CNCC(O)COc1ccc(Cl)c(-c2nc(NC3CCOCC3)c(C)c(-c3c(CO)noc3C)n2)c1 (stereo not drawn) [Example 273-3]
< 100 nM	CNC[C@@H](O)COc1ccc(F)c(-c2nc(-c3c(C)noc3C)cc(N3Cc4nccnc4C3)n2)c1 [Example 274-3]
< 100 nM	CNC[C@@H](O)COc1ccc(F)c(-c2nc(-c3c(C)noc3C)cc(N3Cc4cnn(C)c4C3)n2)c1 [Example 275-3]
< 100 nM	CNC[C@@H](O)COc1ccc(F)c(-c2nc(-c3c(C)noc3C)cc(N3CC4(CCOCC4)C3)n2)c1 [Example 277-3]
< 100 nM	CNC[C@@H](O)COc1cccc(-c2nc(NC3CCN(C(=O)OC)CC3)cc(-c3c(C)nnn3C)n2)c1 [Example 278-3]
< 100 nM	CNC[C@@H](O)COc1ccc(Cl)c(-c2nc(-c3c(C)noc3C)c(C)c(N3Cc4[nH]c(=O)[nH]c(=O)c4C3)n2)c1 [Example 279-3]
< 100 nM	CNC[C@@H](O)COc1ccc(F)c(-c2nc(-c3c(C)noc3C)c(C)c(N3CC4(CCN(CC(F)F)CC4)C3)n2)c1 [Example 280-3]
< 100 nM	CNC[C@@H](O)COc1ccc(F)c(-c2nc(-c3c(C)noc3C)c(C)c(N3CC4(CCN(C(=O)OC(C)C)CC4)C3)n2)c1 [Example 281-3]

Second part, the compound before the results:

Structure (SMILES)	IC50
CNCC(O)COc1cccc(-c2nc(NCC3CCN(C(=O)N(C)C)CC3)c(C)c(-c3c(C)noc3C)n2)c1 (stereo not drawn) [Example 248-1a]	< 100 nM
CNCC(O)COc1cccc(-c2nc(NCC3CCN(C(=O)C4CC4)CC3)c(C)c(-c3c(C)noc3C)n2)c1 (stereo not drawn) [Example 249-1a]	< 100 nM
CNCC(O)COc1cccc(-c2nc(N[C@@H]3CCC[C@@H]3O)c(C)c(-c3c(C)noc3C)n2)c1 (stereo partly drawn) [Example 250-1a]	< 100 nM
CNCC(O)COc1cccc(-c2nc(-c3c(C)noc3C)c(C)c(N3CCC4(CC3)CN(C(=O)OC)C4)n2)c1 (stereo not drawn) [Example 251-1a]	< 100 nM
CNCC(O)COc1cccc(-c2nc(-c3c(C)noc3C)c(C)c(N3CCC4(CC3)CN(C(=O)N(C)C)C4)n2)c1 (stereo not drawn) [Example 252-1a]	< 100 nM
CCS(=O)(=O)N1CC2(CCN(c3nc(-c4cccc(OCC(O)CNC)c4)nc(-c4c(C)noc4C)c3C)CC2)C1 (stereo not drawn) [Example 253-1a]	< 100 nM
CNCC(O)COc1cccc(-c2nc(N[C@H]3C[C@H](O)C3)c(C)c(-c3c(C)noc3C)n2)c1 (stereo partly drawn) [Example 254-1a]	< 100 nM
CNCC(O)COc1cccc(-c2nc(N[C@H]3C[C@@](C)(O)C3)c(C)c(-c3c(C)noc3C)n2)c1 (stereo partly drawn) [Example 255-1a]	< 100 nM
CNCC(O)COc1cccc(-c2nc(N[C@H]3C[C@@H](O)C3)c(C)c(-c3c(C)noc3C)n2)c1 (stereo partly drawn) [Example 256-1a]	< 100 nM
CNCC(O)COc1cccc(-c2nc(NC[C@H]3COCCN3C(=O)N(C)C)c(C)c(-c3c(C)noc3C)n2)c1 (stereo partly drawn) [Example 258-1a]	< 100 nM
CNCC(O)COc1cccc(-c2nc(OCC3CCN(C(=O)OCc4ccccc4)CC3)c(C)c(-c3c(C)noc3C)n2)c1 (stereo not drawn) [Example 259-1a]	< 100 nM
CNCC(O)COc1cccc(-c2nc(N[C@@H]3CCN(C4CC4)C[C@@H]3F)c(C)c(-c3c(C)noc3C)n2)c1 (stereo partly drawn) [Example 260-1a]	< 100 nM
CNCC(O)COc1cccc(-c2nc(N[C@@H]3CCN(C4CC4)C[C@H]3F)c(C)c(-c3c(C)noc3C)n2)c1 (stereo partly drawn) [Example 261-1a]	< 100 nM
CNCC(O)COc1cccc(-c2nc(NCC3CCN(C4COC4)CC3)c(C)c(-c3c(C)noc3C)n2)c1 (stereo not drawn) [Example 262-1a]	< 100 nM
CNCC(O)COc1cccc(-c2nc(NC3CCN(C4COC4)CC3)c(C)c(-c3c(C)noc3C)n2)c1 (stereo not drawn) [Example 263-1a]	< 100 nM
CNCC(O)COc1cccc(-c2nc(NC3CN(C(=O)C4CC4)C3)c(C)c(-c3c(C)noc3C)n2)c1 (stereo not drawn) [Example 264-1a]	< 100 nM
CNCC(O)COc1cccc(-c2nc(N[C@@H]3C[C@H]4CC[C@@H](C3)N4C(=O)OC)c(C)c(-c3c(C)noc3C)n2)c1 (stereo partly drawn) [Example 265-1a]	< 100 nM

Structure (SMILES)	IC50
CNCC(O)COc1cccc(-c2nc(N[C@H]3C[C@H]4CC[C@@H](C3)N4C(=O)OC)c(C)c(-c3c(C)noc3C)n2)c1 (stereo partly drawn) [Example 266-1a]	< 100 nM
CNCC(O)COc1cccc(-c2nc(N[C@H]3COC(=O)C3)c(C)c(-c3c(C)noc3C)n2)c1 (stereo partly drawn) [Example 267-1a]	< 100 nM
CNCC(O)COc1cccc(-c2nc(N[C@@H]3COC(=O)C3)c(C)c(-c3c(C)noc3C)n2)c1 (stereo partly drawn) [Example 268-1a]	< 100 nM
CNCC(O)COc1cccc(-c2nc(NC3CCOCC3C)c(C)c(-c3c(C)noc3C)n2)c1 (stereo not drawn) [Example 269-1a]	< 100 nM
CNCC(O)COc1ccc(Cl)c(-c2nc(NC3CCN(C(=O)OC)CC3)c(C)c(-c3c(C)noc3C)n2)c1 (stereo not drawn) [Example 270-1a]	< 100 nM
CNCC(O)COc1cccc(-c2nc(N[C@@H]3CCOC[C@@H]3F)c(C)c(-c3c(C)noc3C)n2)c1 (stereo partly drawn) [Example 271-1a]	< 100 nM
CNC[C@H](O)COc1ccc(Cl)c(-c2nc(-c3c(C)noc3C)c(C)c(N3Cc4cn(C(C)C)nc4C3)n2)c1 [Example 272-1a]	< 100 nM
CCS(=O)(=O)N1CC(Nc2nc(-c3cccc(OCC(O)CNC)c3)nc(-c3c(C)noc3C)c2C)C1 (stereo not drawn) [Example 273-1a]	< 100 nM
CNCC(O)COc1cccc(-c2nc(NC[C@H]3COCCN3CC(F)F)c(C)c(-c3c(C)noc3C)n2)c1 (stereo partly drawn) [Example 274-1a]	< 100 nM
CNCC(O)COc1cccc(-c2nc(NC3CN(C(=O)OC)C3)c(C)c(-c3c(C)noc3C)n2)c1 (stereo not drawn) [Example 275-1a]	< 100 nM
CCc1onc(C)c1-c1nc(-c2cccc(OCC(O)CNC)c2)nc(NC2CCOCC2)c1C (stereo not drawn) [Example 276-1a]	< 100 nM
CCOC(=O)N1CCOC[C@@H]1CNc1nc(-c2cccc(OC[C@H](O)CNC)c2)nc(-c2c(C)noc2C)c1C [Example 277-1a]	< 100 nM
CCOC(=O)N1CCOC[C@@H]1CNc1nc(-c2cccc(OC[C@@H](O)CNC)c2)nc(-c2c(C)noc2C)c1C [Example 278-1a]	< 100 nM
CNCC(O)COc1cccc(-c2nc(N[C@H]3CCOC[C@@H]3F)c(C)c(-c3c(C)noc3C)n2)c1 (stereo partly drawn) [Example 279-1a]	< 100 nM
CNCC(O)COc1cccc(-c2nc(NC3C[C@@H](O)[C@H](O)C3)c(C)c(-c3c(C)noc3C)n2)c1 (stereo partly drawn) [Example 280-1a]	< 100 nM
CNCC(O)COc1cccc(-c2nc(N[C@H]3CCOC3=O)c(C)c(-c3c(C)noc3C)n2)c1 (stereo partly drawn) [Example 281-1a]	< 100 nM
CNCC(O)COc1cccc(-c2nc(N[C@H]3[C@@H]4CN(C(=O)OC)C[C@@H]43)c(C)c(-c3c(C)noc3C)n2)c1 (stereo partly drawn) [Example 282-1a]	< 100 nM
